Measurements: PMC8286840, “Identifying SARS-CoV-2 antiviral compounds by screening for small molecule inhibitors of Nsp3 papain-like protease” (Biochemical Journal, 2021)
Structures can show the parent of a compound that is named as a salt. Where two headings read alike, the source gives them in different places.

Assays:
[1] = molecular target: T1, SARS-CoV-2 PLpro (nsp3 1564–1878) (Severe acute respiratory syndrome coronavirus 2, UniProt P0DTD1); experiment: biochemical; design: FRET-quenched peptide (Pro3) cleavage by PLpro, 10 min pre-incubation, slope over 20 min, normalised to no-compound control; conditions: low concentration screen
[2] = molecular target: T1, SARS-CoV-2 PLpro (nsp3 1564–1878); experiment: biochemical; design: FRET-quenched peptide (Pro3) cleavage by PLpro, 10 min pre-incubation, slope over 20 min, normalised to no-compound control; conditions: high concentration screen
[3] = Well no.=5242, read-out: % of control remaining
[4] = Well no.=677, read-out: % of control remaining
[5] = Well no.=715, read-out: % of control remaining
[6] = Well no.=6899, read-out: % of control remaining
[7] = Well no.=7743, read-out: % of control remaining
[8] = Well no.=7087, read-out: % of control remaining
[9] = Well no.=1099, read-out: % of control remaining
[10] = Well no.=1515, read-out: % of control remaining
[11] = Well no.=6772, read-out: % of control remaining
[12] = Well no.=5054, read-out: % of control remaining
[13] = Well no.=6205, read-out: % of control remaining
[14] = Well no.=8014, read-out: % of control remaining
[15] = Well no.=7348, read-out: % of control remaining
[16] = Well no.=4693, read-out: % of control remaining
[17] = Well no.=3246, read-out: % of control remaining
[18] = Well no.=549, read-out: % of control remaining
[19] = Well no.=2466, read-out: % of control remaining
[20] = Well no.=5483, read-out: % of control remaining
[21] = Well no.=1818, read-out: % of control remaining
[22] = Well no.=589, read-out: % of control remaining
[23] = Well no.=1421, read-out: % of control remaining
[24] = Well no.=1780, read-out: % of control remaining
[25] = Well no.=4888, read-out: % of control remaining
[26] = Well no.=401, read-out: % of control remaining
[27] = Well no.=4356, read-out: % of control remaining
[28] = Well no.=5566, read-out: % of control remaining
[29] = Well no.=7613, read-out: % of control remaining
[30] = Well no.=8512, read-out: % of control remaining
[31] = Well no.=5240, read-out: % of control remaining
[32] = Well no.=7840, read-out: % of control remaining
[33] = Well no.=4357, read-out: % of control remaining
[34] = Well no.=3305, read-out: % of control remaining
[35] = Well no.=8363, read-out: % of control remaining
[36] = Well no.=556, read-out: % of control remaining
[37] = Well no.=1133, read-out: % of control remaining
[38] = read-out: % of control remaining, Well no.=271
[39] = read-out: % of control remaining, Well no.=2171
[40] = read-out: % of control remaining, Well no.=6566
[41] = Well no.=1074, read-out: % of control remaining

With CC(C)Oc1ccc2c(=O)c(-c3ccccc3)coc2c1 [Ipriflavone] the remaining activity at 1.25 µM [1, 3] was 95.6% and the remaining activity at 3.75 µM [2, 3] was 97.9%.

C[C@@](Cc1ccc(O)c(O)c1)(NN)C(=O)O [S-(-)-Carbidopa] gave a remaining activity at 1.25 µM [1, 4] of 99.2% and a remaining activity at 3.75 µM [2, 4] of 97.9%.

With NC(=O)CC[C@H](N)C(=O)O [L-Glutamine] the remaining activity at 1.25 µM [1, 5] was 96.1%, the remaining activity at 1.25 µM [1, 6] was 93.9% and the remaining activity at 1.25 µM [1, 7] was 102%. The remaining activity at 3.75 µM [2, 5] was 93.2%, the remaining activity at 3.75 µM [2, 6] was 92.3% and the remaining activity at 3.75 µM [2, 7] was 104%.

Molecule CC[C@@H](Nc1c(Nc2cccc(C(=O)N(C)C)c2O)c(=O)c1=O)c1ccc(C)o1 [SCH 527123] has a remaining activity at 1.25 µM [1, 8] of 102% and a remaining activity at 3.75 µM [2, 8] of 97.3%.

O=Nc1ccc2oc(=O)ccc2c1 [6-Nitroso-1,2-benzopyrone] showed a remaining activity at 1.25 µM [1, 9] of 95.7% and a remaining activity at 3.75 µM [2, 9] of 104%.

O=C(c1ccc(F)cc1)C1CCN(CCn2c(=O)[nH]c3ccccc3c2=O)CC1 [Ketanserin tartrate] gave a remaining activity at 1.25 µM [1, 10] of 93.9% and a remaining activity at 3.75 µM [2, 10] of 95.4%.

CN1C(=O)/C(=C2/C(=O)Nc3ccccc32)c2ccccc21 [Meisoindigo] showed a remaining activity at 1.25 µM [1, 11] of 94.5% and a remaining activity at 3.75 µM [2, 11] of 95%.

Molecule Nc1ccn([C@@H]2O[C@H](CO)[C@@H](O)[C@H]2O)c(=O)n1 [Cytidine] has a remaining activity at 1.25 µM [1, 12] of 97.5%, a remaining activity at 1.25 µM [1, 13] of 108% and a remaining activity at 1.25 µM [1, 14] of 98.6%. It also gave a remaining activity at 3.75 µM [2, 12] of 100%, a remaining activity at 3.75 µM [2, 13] of 110% and a remaining activity at 3.75 µM [2, 14] of 97.3%.

N=C(N)NS(=O)(=O)c1ccc(N)cc1 [Sulfaguanidine] showed a remaining activity at 1.25 µM [1, 15] of 93.5% and a remaining activity at 3.75 µM [2, 15] of 93.1%.

CC(=O)NCC(=O)N1[C@@H]2CC[C@H]1c1ccc(Nc3ncc(C(F)(F)F)c(NC4CCC4)n3)cc12 [PF-03814735] was tested, and the remaining activity at 1.25 µM [1, 16] was 102% and the remaining activity at 3.75 µM [2, 16] was 105%.

Molecule COC(=O)[C@H]1[C@H]2C[C@H]3c4[nH]c5cc(OC)ccc5c4CCN3C[C@H]2C[C@@H](OC(=O)c2cc(OC)c(OC)c(OC)c2)[C@@H]1OC [(-)-Isoreserpine] has a remaining activity at 1.25 µM [1, 17] of 102% and a remaining activity at 3.75 µM [2, 17] of 100%.

In the case of Nc1ccn([C@H]2CC[C@@H](CO)O2)c(=O)n1 [2',3'-dideoxycytidine], the remaining activity at 1.25 µM [1, 18] is reported as 98.3% and the remaining activity at 3.75 µM [2, 18] is reported as 96.6%.

O=Nc1c(-c2c(O)[nH]c3cc(Br)ccc23)[nH]c2ccccc12 [GSK-3 Inhibitor IX] was tested, and the remaining activity at 1.25 µM [1, 19] was 95.8% and the remaining activity at 3.75 µM [2, 19] was 98.6%.

For C[N+](C)(C)CCO [2-hydroxy-N,N,N-trimethylethanaminium chloride], the remaining activity at 1.25 µM [1, 20] was 98.3% and the remaining activity at 3.75 µM [2, 20] was 97.8%.

Work on Cc1ccc(-c2cc(C(F)(F)F)nn2-c2ccc(S(N)(=O)=O)cc2)cc1 [Celecoxib] yielded a remaining activity at 1.25 µM [1, 21] of 88.6% and a remaining activity at 3.75 µM [2, 21] of 88.2%.

With OC[C@H]1NC[C@@H](O)[C@@H]1O [1,4-Dideoxy-1,4-imino-D-arabinitol] the remaining activity at 1.25 µM [1, 22] was 102% and the remaining activity at 3.75 µM [2, 22] was 100%.

With CN(C)CCCCSC(=N)N [SKF 91488 dihydrochloride] the remaining activity at 1.25 µM [1, 23] was 100% and the remaining activity at 3.75 µM [2, 23] was 98.7%.

With CCCc1nc(C)c2c(=O)nc(-c3cc(S(=O)(=O)N4CCN(CC)CC4)ccc3OCC)[nH]n12 [Vardenafil] the remaining activity at 1.25 µM [1, 24] was 97.7% and the remaining activity at 3.75 µM [2, 24] was 97.8%.

Molecule O=C(O)[C@H](CC(=O)N1C[C@H]2CCCC[C@H]2C1)Cc1ccccc1 [Mitiglinide calcium] has a remaining activity at 1.25 µM [1, 25] of 95.5% and a remaining activity at 3.75 µM [2, 25] of 96.8%.

N[C@H](C(=O)O)c1cc(O)cc(O)c1 [(S)-3,5-Dihydroxyphenylglycine] gave a remaining activity at 1.25 µM [1, 26] of 102% and a remaining activity at 3.75 µM [2, 26] of 98.7%.

Molecule CCCCC/C=C/C/C=C/CCCCCCCC(=O)O [9(E),12(E)-Octadecadienoic acid] has a remaining activity at 1.25 µM [1, 27] of 105% and a remaining activity at 3.75 µM [2, 27] of 104%.

Molecule CC(=O)OCC(=O)[C@@]12N=C(C)O[C@@H]1C[C@H]1[C@@H]3CCC4=CC(=O)C=C[C@]4(C)[C@H]3[C@@H](O)C[C@@]12C [Deflazacort] has a remaining activity at 1.25 µM [1, 28] of 103%, a remaining activity at 1.25 µM [1, 29] of 102% and a remaining activity at 3.75 µM [2, 28] of 104%. It also gave a remaining activity at 3.75 µM [2, 29] of 97.5%.

With CC(C)(C)[C@@H]1NC(=O)O[C@@H]2CCC[C@H]2OC/C=C/C(F)(F)c2nc3ccccc3nc2O[C@@H]2C[C@@H](C(=O)N[C@]3(C(=O)NS(=O)(=O)C4(C)CC4)C[C@H]3C(F)F)N(C2)C1=O [Glecaprevir] the remaining activity at 1.25 µM [1, 30] was 103% and the remaining activity at 3.75 µM [2, 30] was 93.8%.

Molecule C1=C2CCCN[C@H]2[C@@H]2C[C@H]1[C@H]1CCCCN1C2 [Aloperine] has a remaining activity at 1.25 µM [1, 31] of 94.5% and a remaining activity at 3.75 µM [2, 31] of 94%.

CC(=O)N(C(C)=O)c1ccc(N=Nc2ccccc2C)cc1C [Diacetazotol] was tested, and the remaining activity at 1.25 µM [1, 32] was 98.8% and the remaining activity at 3.75 µM [2, 32] was 97.2%.

In the case of CCCCCCCCCCOCCC(=O)O [4-Oxatetradecanoic acid], the remaining activity at 1.25 µM [1, 33] is reported as 101% and the remaining activity at 3.75 µM [2, 33] is reported as 107%.

CC(C)=CC[C@@H](OC(=O)C=C(C)C)C1=CC(=O)c2c(O)ccc(O)c2C1=O was tested, and the remaining activity at 1.25 µM [1, 34] was 89.6% and the remaining activity at 3.75 µM [2, 34] was 85.3%.

CC(=O)N1CCC(C(=O)N(CCCN2CCC(Cc3ccc(C(N)=O)cc3)CC2)c2ccc(C)c(Cl)c2)CC1 [TAK-220] gave a remaining activity at 1.25 µM [1, 35] of 94.6% and a remaining activity at 3.75 µM [2, 35] of 92.9%.

With NCc1cc(O)no1 [Muscimol hydrobromide] the remaining activity at 1.25 µM [1, 36] was 95.9% and the remaining activity at 3.75 µM [2, 36] was 94.1%.

C[C@]12N[C@H](Cc3ccccc31)c1ccccc12 [(+)-MK-801 hydrogen maleate] showed a remaining activity at 1.25 µM [1, 37] of 98.4% and a remaining activity at 3.75 µM [2, 37] of 92.1%.

In the case of C[C@H]1C[C@H]2[C@@H]3CCC4=CC(=O)C=C[C@]4(C)[C@@]3(F)[C@@H](O)C[C@]2(C)[C@@]1(O)C(=O)CO [Betamethasone], the remaining activity at 1.25 µM [1, 38] is reported as 97.7%, the remaining activity at 1.25 µM [1, 39] is reported as 93.5% and the remaining activity at 1.25 µM [1, 40] is reported as 94.8%. For the same molecule, the remaining activity at 3.75 µM [2, 38] was 95.6%, the remaining activity at 3.75 µM [2, 39] was 93.7% and the remaining activity at 3.75 µM [2, 40] was 95.4%.

Cc1ccccc1/C=C/C1=NCCN1 [Metrazoline oxalate] showed a remaining activity at 1.25 µM [1, 41] of 88.9% and a remaining activity at 3.75 µM [2, 41] of 89.7%.
